Where “and” joins values, the source holds several entries; their conditions need not be identical. Identical values can stand only once. Like-named read-outs stand apart in the source and are kept apart here.
What was measured:
ischemic rat hearts = assay: Rat heart ischemia model, tissue adenosine levels; type: in vivo, rats; details: intraperitoneal injection, hearts excised after 60 minutes, incubated 60 minutes at 37°C, HPLC
Procedure: Male rats were injected intraperitonealy with either the AICA riboside analog, AICA riboside or saline, as a control. After 60 minutes, the hearts were excised and incubated at 37°C for a further 60 minutes. Tissue extracts were prepared and analyzed for adenosine by high performance liquid chromatography (HPLC). […]

[1] = test system: longitudinal muscle from the guinea pig ileum; assay: Inhibition of stimulated contraction in isolated ileum; details: concentration which inhibited electrically stimulated contraction by 50%, read-out: IC50
Procedure: Parallel platinum electrodes were used to deliver electrical current at 1 minute intervals at a voltage adequate to induce contraction of 90% of maximal.

[2] = target: T1, calf intestinal musosa adenosine deaminase (Bos taurus, UniProt P56658); assay: Adenosine deaminase activity inhibition; type: biochemical; details: 80 µM adenosine, pH 7.0, 10 minutes at 37°C
T1 construct: calf intestinal musosa adenosine deaminase; from tissue; host or cells: calf intestinal mucosa
T1 sequence (P56658 1-363): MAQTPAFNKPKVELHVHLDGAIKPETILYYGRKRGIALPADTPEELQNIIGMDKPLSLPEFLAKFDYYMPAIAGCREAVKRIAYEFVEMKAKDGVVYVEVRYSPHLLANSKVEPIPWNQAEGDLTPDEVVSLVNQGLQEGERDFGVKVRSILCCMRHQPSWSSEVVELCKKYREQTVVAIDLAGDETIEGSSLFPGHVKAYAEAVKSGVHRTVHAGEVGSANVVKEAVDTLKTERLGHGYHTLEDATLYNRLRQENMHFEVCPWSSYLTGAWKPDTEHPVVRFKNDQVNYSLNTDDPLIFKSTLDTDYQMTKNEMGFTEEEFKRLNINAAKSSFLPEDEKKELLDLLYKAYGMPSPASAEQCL
Procedure: Different concentrations of the test compounds were incubated in the assay mixture for 10 minutes at 37°C. The reaction was monitored continuously for oxidation of NADH from the change in absorbance at 340 nm.

[3] = test system: platelet aggregation in human whole blood; assay: Inhibition of platelet aggregation in human whole blood; type: cell-based; details: 10 minutes at 37°C, 10 µM adenosine added 5 minutes before, ADP (6-25 µM) induced, impedance technique
Procedure: Whole blood was drawn from healthy donors and collected in 0.1 vol. of sodium citrate to prevent coagulation. Platelet aggregation was measured by the impedance technique using a Whole Blood Aggregometer.

[4] = target: T2, NBTI-specific adenosine transport site (Homo sapiens, UniProt Q99808); assay: [3H]-NBTI binding assay; details: 50% displacement of bound [3H]-NBTI (0.5 nM); neuronal membrane protein, 30 minutes, pH 7.4, room temperature; read-out: ED50 (the source's name)
T2 construct: incubated for 30 minutes with 0.5 mg neuronal membrane protein together with 0.5 nM [^3H]-NBTI; from tissue
T2 sequence (Q99808 1-456): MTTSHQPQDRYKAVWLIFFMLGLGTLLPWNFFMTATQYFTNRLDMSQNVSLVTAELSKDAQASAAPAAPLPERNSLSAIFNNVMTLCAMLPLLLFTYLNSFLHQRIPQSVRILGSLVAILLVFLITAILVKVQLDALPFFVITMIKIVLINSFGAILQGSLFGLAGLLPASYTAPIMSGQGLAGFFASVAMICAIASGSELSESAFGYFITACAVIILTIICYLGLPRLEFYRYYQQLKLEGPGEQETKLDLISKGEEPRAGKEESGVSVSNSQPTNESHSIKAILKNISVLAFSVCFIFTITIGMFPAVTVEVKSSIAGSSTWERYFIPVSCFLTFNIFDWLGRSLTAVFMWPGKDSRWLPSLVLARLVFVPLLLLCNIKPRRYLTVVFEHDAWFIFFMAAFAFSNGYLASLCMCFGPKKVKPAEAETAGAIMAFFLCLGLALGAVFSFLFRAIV
Procedure: Increasing concentrations of the test compounds were incubated for 30 minutes with 0.5 mg neuronal membrane protein together with 0.5 nM [^3H]-NBTI in a Tris buffer (pH 7.4) at room temperature. The assays were quenched and membranes collected by rapid filtration. Filters were then solubilized and radioactivity determined by scintillation counting.

Anesthetized male dogs = type: in vivo; details: n = 6
Procedure: Anesthetized male dogs were instrumented to measure regional myocardial wall thickening during right atrial pacing in the presence of a stenosis of the left anterior descending artery (Young & Mullane Am. J. Physiol. in press (1991)). In Table XIA, the effects on wall thickening and arterial pressure of six repeated episodes of pacing in animals treated with a continuous IV infusion of 50 µg/kg/min of the test compound administered post-pace #1 are compared with saline-treated control animals. […]

[5] = test system: coronary endothelial cells; assay: Inhibition of adenosine utilization in cell culture; type: cell-based; details: 1 µM [3H] adenosine, 15 minutes
Procedure: Inhibition of adenosine utilization was determined by measuring the concentration of extracellular adenosine by scintillation counting following separation by thin layer chromatography (TLC).

[6] = Oral bioavailability and half-life in fasted adult beagles; details: dog, in vivo
Procedure: Heparinized blood and urine were collected at selected intervals over 24 hours. Each sample was chilled, centrifuged at 4°C and frozen prior to HPLC analysis.

Isolated rat hearts = assay: Improved functional recovery in isolated hearts (Langendorff, post-ischemic LVDP); details: 30 min ischemia, 30 min reperfusion, number in brackets = hearts
Procedure: Isolated rat hearts were cannulated via the ascending aorta and attached to a perfusion apparatus according to the method of Langendorff. The hearts were perfused at a constant pressure of 100 cm of H2O with a modified Krebs-Henseleit buffer (pH 7.4) at 37°C. As a measure of heart function, left ventricular developed pressure (LVDP) was continuously monitored. Following equilibration of the hearts for a period of 30 min., the hearts were subjected to reduced flow i.e. ischemia, by reducing the pressure to 10 cm of H2O for 30 min. Flow was then restored by returning the pressure to its original level (100 cm of H2O) for a further 30 min.

[7] = test system: coronary endothelial cells; assay: Adenosine release from isolated cells under net ATP breakdown; type: cell-based; details: 50 µM test compound
Procedure: In this experimental model the cells were treated with 50 µM of the test compound and incubated for 16 hours at 37°C. Cells were then washed with phosphate-buffered saline and resuspended in standard culture medium containing no glucose (to inhibit glycolysis), 50 µM antimycin A (to inhibit oxidative phosphorylation) and 20 µM deoxycoformycin (to inhibit adenosine utilization by adenosine deaminase). This treatment was designed to simulate ischemic condition by inducing net ATP breakdown. Media was then processed for HPLC.

male Mongolian gerbils = assay: Experimental stroke model (gerbil brain ischemia); type: in vivo; details: pretreatment with 500 mg/kg; bilateral carotid occlusion for 5 minutes; histology after seven days
Procedure: In this test, male Mongolian gerbils were anesthetized with 2-3% halothane in N20:02 and the common carotid arteries exposed. Ischemia was then induced by bilateral occlusion of both common carotid arteries for 5 minutes. Seven days following the ischemic insult, brains were removed and processed for histology.

[8] = cited from earlier work

Nc1c(C(=O)NN2CCCCC2)ncn1[C@@H]1O[C@H](CO)[C@@H](O)[C@H]1O [Compound No. 36, 5-amino-4-(1-piperidinocarbamoyl)-1-β-D-ribofuranosylimidazole]
Tissue Adenosine Levels (% Increase vs. Saline) (ischemic rat hearts): 34%

Nc1c(C(=O)NC2CC2)ncn1[C@@H]1O[C@H](CO)[C@@H](O)[C@H]1O [Compound No. 12, 5-Amino-1-beta-D-ribofuranosylimidazole-4-N-(cyclopropyl)carboxamide]
IC50 [1]: 400 µM | Tissue Adenosine Levels (% Increase vs. Saline) (ischemic rat hearts): 29%

CCO[C@@H]1[C@H](O)[C@@H](CO)O[C@H]1n1cnc(C(N)=O)c1N [Compound No. 34, 5-amino-1-(2-O-ethyl-β-D-ribofuranosyl)-4-imidazole carboxamide]
IC50 [2]: 510 µM

Cl.NC[C@H]1O[C@@H](n2cnc(C(=O)NCc3ccc(Cl)cc3)c2N)[C@H](O)[C@@H]1O [Compound No. 53, 5-Amino-1-(5-amino-5-deoxy-β-D-ribofuranosyl)imidazole-4-N-[(4-chlorophenyl)methyl]carboxamide Hydrochloride]
IC50 [1]: 70 µM | IC50 [3]: 150 µM | EC50 [4]: ~100 µM | % of NON-ISCHEMIC WALL THICKENING (Anesthetized male dogs; Pace # 1 (infusion started post-pace #1)): 49.5 ± 6.5% | % of NON-ISCHEMIC WALL THICKENING (Anesthetized male dogs; Pace # 2, continuous IV infusion of 50 µg/kg/min): 46.7 ± 7.0% | % of NON-ISCHEMIC WALL THICKENING (Anesthetized male dogs; Pace # 3, continuous IV infusion of 50 µg/kg/min): 54.2 ± 9.4 % | % of NON-ISCHEMIC WALL THICKENING (Anesthetized male dogs; Pace # 4, continuous IV infusion of 50 µg/kg/min): 48.1 ± 7.6 % | % of NON-ISCHEMIC WALL THICKENING (Anesthetized male dogs; Pace # 5, continuous IV infusion of 50 µg/kg/min): 47.5 ± 8.2 % | % of NON-ISCHEMIC WALL THICKENING (Anesthetized male dogs; Pace # 6, continuous IV infusion of 50 µg/kg/min): 42.1 ± 7.0 % | Inhibition of Adenosine Utilization (%) ([5]; 5 µM test compound): 34 ± 4% | Inhibition of Adenosine Utilization (%) ([5]; 50 µM test compound): 58 ± 2% | Half Life [6]: 337 min | Absolute Oral Bioavailability % ([6]; po): 53 (1-468) 32% | Function Recovery % Baseline LVDP (% of hearts) (Isolated rat hearts; 5 µM in perfusion buffer): 85.6±1.8 (10) %

NC(=O)c1ncn([C@@H]2O[C@H](CO)[C@@H](O)[C@H]2O)c1N [Compound No. 1, 5-amino-1-beta-D-ribofuranosylimidazole-4-carboxamide, reference compound]
IC50 ([1]; Cavia porcellus): > 1000 µM | IC50 ([3]; Homo sapiens, Platelet): 2700 µM | EC50 [4]: > 1000 µM | Extracellular Adenosine Levels ([7]; 16 hours at 37°C, then no glucose, antimycin A, deoxycoformycin): 1.64 ± 0.12 µM | Extracellular Adenosine Increase (%) ([7]; 16 hours, increase versus control): 15.5% | inhibition at 5 µM ([5]; Endothelial cell, 5 µM test compound, read-out: Inhibition of Adenosine Utilization (%)): 5 ± 2% | inhibition at 50 µM ([5]; Endothelial cell, 50 µM test compound, read-out: Inhibition of Adenosine Utilization (%)): 10 ± 1% | Tissue Adenosine Levels (% Increase vs. Saline) (ischemic rat hearts): 30% | bioavailability ([6]; beagle, oral, fasted adult beagles, 10 mg/kg IV bolus and 20 mg/kg solution via stomach tube, read-out: Absolute Oral Bioavailability %): 8% | half-life ([6]; beagle, fasted adult beagles): 21 min | Function Recovery % Baseline LVDP (% of hearts) (Isolated rat hearts; 5 µM in perfusion buffer): 64.2±1.5 (6) % | Function Recovery % Baseline LVDP (% of hearts) (Isolated rat hearts; 20 µM in perfusion buffer): 79.4±1.3 (34) %

CO[C@@H]1[C@H](O)[C@@H](CO)O[C@H]1n1cnc(C(N)=O)c1N [Compound No. 20, 5-Amino-1-(2-O-methyl-β-D-ribofuranosyl)-imidazole-4-carboxamide]
IC50 [2]: 1400 µM

Nc1c(C(=O)NCc2ccccc2)ncn1[C@@H]1O[C@H](CO)[C@@H](O)[C@H]1O [Compound No. 11, 5-Amino-1-beta-D-ribofuranosylimidazole-4-N-(benzyl)carboxamide]
IC50 [1]: 200 µM | effect in a gerbil model of brain ischemia (hippocampal pyramidal cell survival) (male Mongolian gerbils): protective effects | Tissue Adenosine Levels (% Increase vs. Saline) (ischemic rat hearts; listed as 11 (1-226)): 53% and 45% | Function Recovery % Baseline LVDP (% of hearts) (Isolated rat hearts; 5 µM in perfusion buffer): 77.2±5.8 (7) % | Function Recovery % Baseline LVDP (% of hearts) (Isolated rat hearts; 20 µM in perfusion buffer): 85.7±6.2 (3) %

Nc1c(C(=O)NC2CCCC2)ncn1[C@@H]1O[C@H](CO)[C@@H](O)[C@H]1O [Compound No. 10, 5-Amino-1-beta-D-ribofuranosylimidazole-4-N-(cyclopentyl)carboxamide]
EC50 [4]: 350 µM | effect in a gerbil model of brain ischemia (hippocampal pyramidal cell survival) (male Mongolian gerbils): protective effects | Tissue Adenosine Levels (% Increase vs. Saline) (ischemic rat hearts; listed as 10 (1-186)): 79% and 68% | Function Recovery % Baseline LVDP (% of hearts) (Isolated rat hearts; 5 µM in perfusion buffer): 83.7±0.7 (6) % | Function Recovery % Baseline LVDP (% of hearts) (Isolated rat hearts; 20 µM in perfusion buffer): 84.5±3.5 (2) %

Nc1ncnc2c1ncn2[C@@H]1O[C@H](CO)[C@@H](O)[C@H]1O [adenosine]
half life of adenosine in blood [8]: < 0.167 min
